Consider four molecules from US6946456B2, “Methods for treating cell proliferative disorders and viral infections” (Sloan-Kettering Institute for Cancer Research, priority 2000, dated 2005).

In test [1] the test system is tumor cell lines with mutated Rb (MB-MDA 468, BT-549, DU145 and DU4475). The test can be described thus: Cell cycle analysis by flow cytometry of ethidium bromide-stained nuclei, tumor cell lines with mutated Rb. The class given is cell-based, human. How it is done: (§1) The human breast cancer cell lines MB-MDA 468, MCF7 and BT-549 and the colon carcinoma cell line, Colo 205, were obtained from ATCC. Breast cell lines were maintained in DME-F12 media and Colo 205 cells in RPMI; both media were supplemented with 5% fetal calf serum (BRL), 2 mM glutamine and 50 u/ml each of penicillin and streptomycin. All cells were incubated at 37° C. in 5% C02. Cells were treated for 24 hours with 250 ng/ml herbimycin A (Gibco) dissolved in DMSO or 435 nM of radicicol (Sigma). After treatment the […] and analyzed by flow cytometry. Nuclei were isolated for flow cytometry assays stained with ethidium bromide and analyzed using a Becton Dickinson fluorescence-activated cell sorter. Statistical data was obtained using Multicycle program software.
For orientation: In flow cytometry, cells or beads pass a laser one at a time.

Test [2] deals with Rb-wild type cells (MCF7 and Colo 205). The test can be described thus: Cell cycle analysis by flow cytometry of ethidium bromide-stained nuclei, Rb-wild type tumor cell lines. In kind it is cell-based, human. The following applies: for cell cycle effect in tumor cell lines: 12 tumor cell lines examined, FIG. 1A. How it is done:
as §1

Test [3] deals with MB-MDA 468 cells. The test can be described thus: Immunofluorescent analysis (bisbenzimide, anti-α-tubulin, ACA/CREST). The class given is cell-based, human. How it is done: For immunofluorescent analysis, harvested cells were washed with PBS, fixed with methanol for 20 min at −20° C., washed again and blocked for 30 min with 2% BSA in PBS. Cells were then stained with anti-α-tubulin (Sigma) and anti-centromere protein antibodies (ACA/CREST) (gift of Dr. J. D. Rattner) in 2% BSA PBS for 1 hour. Following 3 washes with 0.5% BSA in PBS, cells were incubated with anti-human FITC conjugated, antimouse rhodamine conjugated antibodies (Molecular Probes) and 2 μg/ml bisbenzimide in 2% BSA in PBS for 45 min. Cells were then washed 4× with 0.5% BSA in PBS, resuspended in PBS and images captured by confocal microscopy or with a CCD camera. Images were then processed using Slidebook 3.0 and Adobe Photoshop program software.

Test [4] has as its system Rb transfected MB-MDA 468 cells (468-7 and 468-19). The test can be described thus: Cell cycle analysis in Rb transfected MB-MDA 468 cells. In kind it is cell-based, human. How it is done: (§2) To further confirm that the gene product of the Rb gene permits progression through mitosis in the presence of an HSP90 inhibitor, MB-MDA 468 cells were transfected with the plasmid pUHD1 0-3HGR containing full-length 4.7 kb human Rb cDNA. Rb transfectants were grown in DME-F12 media supplemented with 5% fetal calf serum (BRL), 2 mM glutamine and 50 μg/ml each of penicillin and streptomycin and 100 μg/ml hygromycin B (Boehringer Mannheim). To confirm the presence of the Rb gene product Western blot analysis was carried out using anti-Rb antibodies (Pharmingen) as described herein. Vector control, MB-MDA 468, and Rb transfected MB-MDA 468 cells were arrested with aphidicolin as described above. After release from aphidicolin arrest, transfected and non-transfected MM-MDA 468 cells were cultured in the presence of an ansamycin inhibitor as described in Example 1. Cell progression was monitored by flow cytometric analysis of ethidium bromide-stained nuclei as described above.

In test [5] the test system is cyclin B1-associated kinase activity. The test can be described thus: Immunoprecipitation and in vitro kinase assay (histone H1), cyclin B1. Conditions: MB-MDA 468, loosely adherent mitotically arrested cells. The class given is cell-based, human. How it is done:
(§3) Levels of mitotic cyclin expression and associated kinase activities in herbimycin arrested MB-MD468 cells were assessed using immunoblot analysis and in vitro kinase assays as described below. Cells cultured with herbimycin were enriched for mitotically arrested cells by using only the loosely adherent population in which the mitotic index was greater than 90%.
(§4) For immunoprecipitation, 100 μg of total protein was incubated with anticyclin A or anti-cyclin B1 (Santa Cruz) antibodies for 2 hours at 4° C. and then for 1 hour following the addition of protein A-Sephaliose. The immune complexes were washed 4× with lysis buffer and boiled in SDS-PAGE sample buffer for 5 min. Following SDS-PAGE, proteins were transferred onto Immobilon and analyzed by western blotting.
(§5) For in vitro kinase reactions, immune complexes were washed 4× with lysis buffer, 2× with kinase buffer (20 mM Tris pH 7.4, 7.5 mM MgCl2, 1 mM DTT) and incubated in 40 μl of kinase buffer containing 2 μg histone H1, 10 μCi [γ-^32P] ATP and 300 μM ATP for 10 min at 37° C. The reaction was stopped by the addition of SDS-PAGE sample buffer and boiled for 5 min. Proteins were resolved on SDS-PAGE, transferred onto Immobilon and exposed to autoradiography film or phosphoimager screen. Kinase activity was quantitated by FUJIX phosphoimager and MacBAS program software.

Test [6] has as its system cyclin B1 protein expression. Kind of test: Immunoblot analysis of cyclin B1 expression. In kind it is cell-based, human. The following applies: MB-MDA 468, compared to control. How it is done:
as §3
(§6) Immunoblot analysis of lysates from cells treated with DMSO, nocodazole or herbimycin were analyzed by Western blot analysis using anti-cyclin A or anti-B1 antibodies. Treated cells were harvested, washed with PBS and lysed in NP40 lysis buffer (50 mM Tris pH7.4, 1% NP40,150 mM NaCl, 40 mM NaF. 1 mM Na3VO4, 1 mM phenylmethylsulfonlylfluoride, and 10 μg/ml. each of leupeptin, aprotinin and soybean trypsin inhibitor) for 30 min on ice. Lysates were centrifuged at 15,000×g for 10 min and protein concentration determined by bicinchoninic acid protein assay (Pierce). Equal amounts of total protein were resolved by SDS-PAGE and transferred onto Immobilon PVDF membranes (Millipore) by electroblotting. Blots were blocked overnight in 5% nonfat milk in TBS-T (0.1% Tween-20 TBS, 10 mM Tris pH 7.4, 150 mM NaCl) at 4° C. and subsequently probed with either anti-cyclin A or cyclin B1 antibodies (Santa Cruz Biotechnology). Following incubation with HRP-conjugated secondary antibodies, proteins were detected by chemiluminescence (Amersham).

Test [7] relates to MB-MDA 468 cells. The test can be described thus: Mitotic index by bisbenzimide staining. The class given is cell-based, human. How it is done:
For mitotic indices, cells were typsinized, washed with PBS and fixed with 3% paraformaidehyde in PBS for 20 min. Cells were then stained with 3 μg/ml bisbenzimide (Hoechst 33258; Sigma) for 15 min and examined under fluorescence microscopy. Mitosis was scored by the presence of condensed chromosomes.

The test system of test [8] is cyclin A-associated kinase activity. Kind of test: Immunoprecipitation and in vitro kinase assay (histone H1), cyclin A. In kind it is cell-based, human. Conditions: MB-MDA 468, arrested cells compared to control cells. How it is done:
as §3, §4, §5

In test [9] the test system is primary human foreskin keratinocytes (HFK). The test can be described thus: Cell cycle analysis in primary human foreskin keratinocytes. Conditions: 24 hours. The class given is cell-based. How it is done: (§7) Primary human foreskin keratinocytes transfected with HPV-1 6 E6 and E7 were provided by Drs. H. Stöppler and R. Schlegel (Georgetown Univ.) and grown as previously described. Primary human foreskin keratinocytes or HPV 16 E6/E7 transfected human foreskin keratinoytes were treated with HA or DMSO for 24 hours and ethidium bromide stained-nuclei analyzed by flow cytometry as described above.

Another test has as its system cyclin A expression. The test can be described thus: Immunoblot analysis of cyclin A expression. In kind it is cell-based, human. Conditions: MB-MDA 468, arrested cells compared to control cells. How it is done: as §3, §6
On the technique in general: A western blot detects proteins with antibodies after separation by electrophoresis.

Test [10] concerns HPV 16 E6/E7 transfected human foreskin keratinocytes. The test can be described thus: Cell cycle analysis in HPV 16 E6/E7 transfected human foreskin keratinocytes. In kind it is cell-based. The following applies: 24 hours. How it is done: as §7
Test [11] concerns Rb-negative MB-MDA 468 cells. The test can be described thus: Synchrony experiment: release from aphidicolin block, MB-MDA 468. In kind it is cell-based, human. The following applies: released into drug. How it is done: (§8) Nuclei were isolated for flow cytometry assays stained with ethidium bromide and analyzed using a Becton Dickinson fluorescence-activated cell sorter. Statistical data was obtained using Multicycle program software.
(§9) For synchrony experiments, cells were treated with 1 μg/ml aphidicolin (Sigma) for 18 hours, washed and replated in media containing DMSO or HA.
as §2

In test [12] the test system is Rb-wild type Colo 205 cells. Kind of test: Synchrony experiment: release from aphidicolin block, Colo 205. Conditions: released into drug. In kind it is cell-based, human. How it is done: as §8, §9

Structures are written as SMILES. Entries after “also recorded” stand apart in the source; their conditions may differ. Where only a bound is given, the exact number is not on record here.

On to `C=CCNC1=C2C[C@@H](C)C[C@H](OC)[C@H](O)[C@@H](C)/C=C(\C)[C@H](OC(N)=O)[C@@H](OC)/C=C\C=C(/C)C(=O)NC(=CC1=O)C2=O` [17-AAG, 17-allylamino-(17)-demethoxygeldanamycin], for which, in [1] (Rb-dependent), the “cell cycle profiles and mitotic phenotype compared with HA” value is “same Rb-dependent cell cycle profiles and mitotic phenotype as observed with HA”. The “cell cycle effect in tumor cell lines” value in test [2] is reported as “growth arrest in G1”.
On to `CO[C@H]1[C@@H](OC)C[C@H](C)[C@@H](OC)C2=CC(=O)C=C(NC(=O)/C(C)=C/C=C\[C@H](OC)[C@@H](OC(N)=O)/C(C)=C/[C@@H]1C)C2=O` [HA, herbimycin A], for which, in the test with MB-MDA 468 cells [3] (77 chromosomes localized to the poles), the “chromosomes localized to the poles scored as double dots for ACA staining” value amounted to 87%. The “spindle formation (α-tubulin staining)” value with MB-MDA 468 cells [3] (arrested Rb-negative cells) is given as “arrested cells contained bipolar spindles”. In addition, in the test with MB-MDA 468 cells [3] (arrested Rb-negative cells, in most cells), the “chromosomal distribution (bisbenzimide and ACA/CREST staining)” value is “chromosomes localized both to the poles and within the spindle”. Further, the “cell cycle effect in Rb-transfectants” value in test [4] (clones 468-7 and 468-19, asynchronous) was “increase in G1 and had no effect on G2/M; also recorded: no effect on G2/M in the Rb-transfectants and instead caused an increase in G1”. The “cell cycle progression of Rb transfectants after release from aphidicolin block” value in [4] (clones 468-7 and 468-19, released into drug) is “cycled through mitosis and entered G1; also recorded: abrogates HA-induced mitotic arrest”. Moreover, the “cyclin B1-associated kinase activity, elevation compared to control” value in [5] is on record as 5 fold. Also, in test [6], the “cyclin B1 protein expression” value was “increased”. Moreover, in test [1] (MB-MDA 468, BT-549, DU145 and DU4475, 250 ng/ml, 24 hours, FIG. 1B), the “cell cycle effect in tumor cell lines with mutated Rb” value is listed as “accumulation of cells with 4n DNA content”. Also, the “cell cycle effect in control transfectants” value in [1] (control transfectants (MB-MDA 468 cells)) is “accumulated with 4n DNA content”. Besides, the “mitotic index of the loosely adherent population” value with MB-MDA 468 cells [7] (MB-MDA 468, enriched for mitotically arrested cells) was “greater than 90%”. Also, the “mitotic index (cells in mitosis)” value in the test on MB-MDA 468 cells [7] (MB-MDA 468 cells, treated population, control 5-10%) is recorded as 60-70%. Besides, the “cyclin A-associated kinase activity” value in test [8] is on record as “slightly lower”. The “cell cycle effect in primary HFK cells” value in test [9] is recorded as “accumulate in G1”. In addition, the “cell cycle effect in tumor cell lines” value in test [2] was “growth arrest in G1”. Moreover, in the test on cyclin A expression, the “cyclin A expression” value was “slightly lower”. In addition, in [10], the “cell cycle effect in E6/E7 transfectants” value was “arrested with 4n DNA content; also recorded: mitotic arrest and not G1 arrest”. Besides, the “time to arrest in the next mitosis after release from aphidicolin” value in [11] was not above 12 h. In addition, the “cell cycle progression after release from aphidicolin block” value in test [12] is “complete mitosis; also recorded: progressed through G2 and mitosis and were arrested in the next G1”.
On to `C[C@@H]1C[C@H]2O[C@@H]2/C=C\C=C\C(=O)Cc2c(Cl)c(O)cc(O)c2C(=O)O1` [Radicicol], for which the “chromosomal distribution in arrested MDA 468 cells” value in the test on MB-MDA 468 cells [3] (MDA 468 cells, radicicol-arrested) was “chromosomes localized to the poles as well as strewn along the spindle”. Also, the “cell cycle effect in Rb-negative MDA-468 cells” value in test [1] (MDA-468, 435 nM, 24 hours) is “accumulation of cells with 4n DNA content”. The “cell cycle effect in Rb-positive cell lines” value in test [2] (Colo205 and MCF7, 435 nM, 24 hours) is “induced G1 arrest”.
On to `COC(=O)Nc1nc2ccc(C(=O)c3cccs3)cc2[nH]1` [nocodazole], for which the “cyclin A-associated kinase activity” value in test [8] is “slightly lower”. Moreover, the “cyclin A expression” value in the test with cyclin A expression is “slightly lower”.
